# Results published in PMC10910063, “Helical domain of hGBP3 cannot stimulate the second phosphate cleavage of GTP” (The Journal of Biological Chemistry, 2024).
# Molecular target: T1, hGBP1^311 (Homo sapiens, UniProt P32455)
# T1 construct: gene GBP1; truncated, without the helical domain; purified as previously reported
# T1 sequence (P32455 1-311): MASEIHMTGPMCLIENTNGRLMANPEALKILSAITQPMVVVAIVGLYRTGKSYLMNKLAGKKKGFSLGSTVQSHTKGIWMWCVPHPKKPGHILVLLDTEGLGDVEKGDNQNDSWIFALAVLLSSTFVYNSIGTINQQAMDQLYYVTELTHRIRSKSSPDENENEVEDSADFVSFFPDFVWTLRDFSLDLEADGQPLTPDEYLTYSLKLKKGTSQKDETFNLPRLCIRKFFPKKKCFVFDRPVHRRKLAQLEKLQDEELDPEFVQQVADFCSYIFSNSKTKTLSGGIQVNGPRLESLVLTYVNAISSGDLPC
# Test: radiolabelled [α-32P]GTP, thin-layer chromatography
# Format: biochemical
# Details: Tris pH 7.5, 5 mM MgCl2, 37 °C
smiles,measurement,value
Nc1nc2c(ncn2[C@@H]2O[C@H](COP(=O)(O)OP(=O)(O)OP(=O)(O)O)[C@@H](O)[C@H]2O)c(=O)[nH]1 [GTP],"radiolabelled [α-32P]GTP, thin-layer chromatography",the deletion of the helical domain of hGBP1 significantly reduced GMP production
